Assay results as given in patent US12156523B2 (priority 2017, dated 2024).

System: Pyricularia oryzae
Experiment: whole plant or invertebrate
Assay type: in vivo
Details: soil, read-out: Control value (number of lesions at the second leaf)

Structure (SMILES): O=C(Nc1ccc(F)c(Cl)c1)c1cc(F)nc(F)c1F [Example 1-29]
- pest or weed control at 10 µg/mL: ≥ 80%

Structure (SMILES): O=C(Nc1c(F)c(F)c(C(F)(F)F)c(F)c1F)c1cc(F)nc(F)c1F [Example 1-4]
- pest or weed control at 10 µg/mL: ≥ 80%

Structure (SMILES): Cc1ccc(NC(=O)c2cc(F)nc(F)c2F)cc1F [Example 1-39]
- pest or weed control at 10 µg/mL: ≥ 80%

Structure (SMILES): O=C(Nc1ccc2c(c1)OCCO2)c1cc(F)nc(F)c1F [Example 1-9]
- pest or weed control at 10 µg/mL: ≥ 80%

Structure (SMILES): Fc1cc(C2=NCCO2)c(F)c(F)n1 [Example 4-2]
- pest or weed control at 10 µg/mL: ≥ 80%

Structure (SMILES): CCCCCCCCOC(=O)c1cc(F)nc(F)c1F [Example 1-127]
- pest or weed control at 10 µg/mL: ≥ 80%

Structure (SMILES): CCOC(=O)c1ccnc(C(F)(F)F)c1 [Example 1-147]
- pest or weed control at 10 µg/mL: ≥ 80%

Structure (SMILES): O=C(c1cc(F)nc(F)c1F)N1CCc2ccccc21 [Example 2-4]
- pest or weed control at 10 µg/mL: ≥ 80%

Structure (SMILES): O=C(Nc1ccccn1)c1cc(F)nc(F)c1F [Example 1-16]
- pest or weed control at 10 µg/mL: ≥ 80%

Structure (SMILES): O=C(Oc1ccc([N+](=O)[O-])cc1)c1cc(F)nc(F)c1F [Example 1-112]
- pest or weed control at 10 µg/mL: ≥ 80%

Structure (SMILES): CCCOC(=O)c1cc(F)nc(F)c1F [Example 1-123]
- pest or weed control at 10 µg/mL: ≥ 80%

Structure (SMILES): Cc1ccc(OC(=O)c2cc(F)nc(F)c2F)cc1 [Example 1-111]
- pest or weed control at 10 µg/mL: ≥ 80%

Structure (SMILES): CC(=O)Oc1ccccc1COC(=O)c1cc(F)nc(F)c1 [Example 1-145]
- pest or weed control at 10 µg/mL: ≥ 80%

Structure (SMILES): O=C(Nc1cccnn1)c1cc(F)nc(F)c1F [Example 1-48]
- pest or weed control at 10 µg/mL: ≥ 80%

Structure (SMILES): COc1cc(NC(=O)c2cc(F)nc(F)c2F)cc(OC)c1 [Example 1-25]
- pest or weed control at 10 µg/mL: ≥ 80%

Structure (SMILES): CCCCCCCCCCCCOC(=O)c1cc(F)nc(F)c1 [Example 1-214]
- pest or weed control at 10 µg/mL: ≥ 80%

Structure (SMILES): O=C1c2ccccc2S(=O)(=O)N1C(=O)c1cc(F)nc(F)c1F [Example 2-5]
- pest or weed control at 10 µg/mL: ≥ 80%

Structure (SMILES): Cc1cc(C)cc(NC(=O)c2cc(F)nc(F)c2F)c1 [Example 1-26]
- pest or weed control at 10 µg/mL: ≥ 80%

Structure (SMILES): COc1ccc(NC(=O)c2cc(F)nc(F)c2F)cc1OC [Example 1-22]
- pest or weed control at 10 µg/mL: ≥ 80%

Structure (SMILES): Cc1ccccc1OC(=O)c1cc(F)nc(F)c1 [Example 1-208]
- pest or weed control at 10 µg/mL: ≥ 80%

Structure (SMILES): O=C(Nc1ccc(Oc2ccccc2)cc1)c1cc(F)nc(F)c1F [Example 1-68]
- pest or weed control at 10 µg/mL: ≥ 80%

Structure (SMILES): Cn1cccc1C(=O)c1cc(F)nc(F)c1F [Example 2-2]
- pest or weed control at 10 µg/mL: ≥ 80%

Structure (SMILES): COc1ccc(COC(=O)c2cc(F)nc(F)c2F)cc1 [Example 1-109]
- pest or weed control at 10 µg/mL: ≥ 80%

Structure (SMILES): O=C(Nc1ccc(F)cc1)c1cc(F)nc(F)c1 [Example 1-201]
- pest or weed control at 10 µg/mL: ≥ 80%

Structure (SMILES): O=C(OC1CCCCC1)c1cc(F)nc(F)c1 [Example 1-205]
- pest or weed control at 10 µg/mL: ≥ 80%

Structure (SMILES): N#Cc1ccccc1NC(=O)c1cc(F)nc(F)c1F [Example 1-35]
- pest or weed control at 10 µg/mL: ≥ 80%

Structure (SMILES): CC(NC(=O)c1cc(F)nc(F)c1F)c1ccc(Cl)cc1 (centres unmarked) [Example 1-84]
- pest or weed control at 10 µg/mL: ≥ 80%

Structure (SMILES): O=C(Nc1cc(Cl)cc(Cl)c1)c1cc(F)nc(F)c1F [Example 1-24]
- pest or weed control at 10 µg/mL: ≥ 80%

Structure (SMILES): CCOC(=O)c1cc(F)nc(F)c1 [Example 1-185]
- pest or weed control at 10 µg/mL: ≥ 80%

Structure (SMILES): O=C(OCc1ccccc1)c1cc(F)nc(F)c1F [Example 1-114]
- pest or weed control at 10 µg/mL: ≥ 80%

Structure (SMILES): O=C(OCc1snc(Cl)c1Cl)c1cc(F)nc(F)c1F [Example 1-104]
- pest or weed control at 10 µg/mL: ≥ 80%

Structure (SMILES): Cc1ccc(COC(=O)c2cc(F)nc(F)c2F)cc1 [Example 1-110]
- pest or weed control at 10 µg/mL: ≥ 80%

Structure (SMILES): O=C(Nc1ccc(F)c(F)c1)c1cc(F)nc(F)c1F [Example 1-21]
- pest or weed control at 10 µg/mL: ≥ 80%

Structure (SMILES): CCOc1ccc(NC(=O)c2cc(F)nc(F)c2F)cc1 [Example 1-57]
- pest or weed control at 10 µg/mL: ≥ 80%

Structure (SMILES): CC(C)(C)Oc1ccc(NC(=O)c2cc(F)nc(F)c2F)cc1 [Example 1-70]
- pest or weed control at 10 µg/mL: ≥ 80%

Structure (SMILES): O=C(Nc1nc2ccccc2s1)c1cc(F)nc(F)c1 [Example 1-194]
- pest or weed control at 10 µg/mL: ≥ 80%

Structure (SMILES): O=C(OC/C=C/c1ccccc1)c1cc(F)nc(F)c1F [Example 1-124]
- pest or weed control at 10 µg/mL: ≥ 80%

Structure (SMILES): CSc1cccc(NC(=O)c2cc(F)nc(F)c2)c1 [Example 1-192]
- pest or weed control at 10 µg/mL: ≥ 80%

Structure (SMILES): O=C(Nc1nc[nH]n1)c1cc(F)nc(F)c1F [Example 1-51]
- pest or weed control at 10 µg/mL: ≥ 80%

Structure (SMILES): Cc1ccc(NC(=O)c2cc(F)nc(F)c2F)cc1C(F)(F)F [Example 1-65]
- pest or weed control at 10 µg/mL: ≥ 80%

Structure (SMILES): Cc1ccc(NC(=O)c2cc(F)nc(F)c2F)cc1Br [Example 1-28]
- pest or weed control at 10 µg/mL: ≥ 80%

Structure (SMILES): N#Cc1ccc(OC(=O)c2cc(F)nc(F)c2F)cc1 [Example 1-108]
- pest or weed control at 10 µg/mL: ≥ 80%

Structure (SMILES): O=C(Nc1cccc(Cc2ccccc2)c1)c1cc(F)nc(F)c1F [Example 1-27]
- pest or weed control at 10 µg/mL: ≥ 80%

Structure (SMILES): O=C(NC1=NCCS1)c1cc(F)nc(F)c1F [Example 1-12]
- pest or weed control at 10 µg/mL: ≥ 80%

Structure (SMILES): N#CCNC(=O)c1cc(F)nc(F)c1F [Example 1-91]
- pest or weed control at 10 µg/mL: ≥ 80%

Structure (SMILES): O=C(Nc1ncccn1)c1cc(F)nc(F)c1F [Example 1-17]
- pest or weed control at 10 µg/mL: ≥ 80%

Structure (SMILES): CCCNC(=O)c1cc(F)nc(F)c1F [Example 1-88]
- pest or weed control at 10 µg/mL: ≥ 80%

Structure (SMILES): CNC(=O)c1cc(F)nc(F)c1F [Example 1-92]
- pest or weed control at 10 µg/mL: ≥ 80%

Structure (SMILES): Fc1cc(C2=NCCCO2)c(F)c(F)n1 [Example 4-3]
- pest or weed control at 10 µg/mL: ≥ 80%

Structure (SMILES): O=C(OCC=C(Cl)Cl)c1cc(F)nc(F)c1F [Example 1-122]
- pest or weed control at 10 µg/mL: ≥ 80%

Structure (SMILES): O=C(Sc1ccccc1)c1cc(F)nc(F)c1F [Example 1-130]
- pest or weed control at 10 µg/mL: ≥ 80%

Structure (SMILES): Cc1cccc(NC(=O)c2cc(F)nc(F)c2F)c1 [Example 1-46]
- pest or weed control at 10 µg/mL: ≥ 80%

Structure (SMILES): O=C(Nc1cnccn1)c1cc(F)nc(F)c1F [Example 1-15]
- pest or weed control at 10 µg/mL: ≥ 80%

Structure (SMILES): COc1ccc(NC(=O)c2cc(F)nc(F)c2F)cc1 [Example 1-61]
- pest or weed control at 10 µg/mL: ≥ 80%

Structure (SMILES): O=C(Nc1cccc(Cl)c1Cl)c1cc(F)nc(F)c1F [Example 1-5]
- pest or weed control at 10 µg/mL: ≥ 80%

Structure (SMILES): CCc1ccc(OC(=O)c2cc(F)nc(F)c2)cc1 [Example 1-186]
- pest or weed control at 10 µg/mL: ≥ 80%

Structure (SMILES): Cc1cnc(NC(=O)c2cc(F)nc(F)c2F)s1 [Example 1-74]
- pest or weed control at 10 µg/mL: ≥ 80%

Structure (SMILES): COc1cc(NC(=O)c2cc(F)nc(F)c2F)cc(OC)c1OC [Example 1-20]
- pest or weed control at 10 µg/mL: ≥ 80%

Structure (SMILES): Cc1cc(NC(=O)c2cc(F)nc(F)c2F)no1 [Example 1-73]
- pest or weed control at 10 µg/mL: ≥ 80%

Structure (SMILES): Cc1ccccc1NC(=O)c1cc(F)nc(F)c1F [Example 1-14]
- pest or weed control at 10 µg/mL: ≥ 80%

Structure (SMILES): O=C(NCCS)c1cc(F)nc(F)c1F [Example 1-79]
- pest or weed control at 10 µg/mL: ≥ 80%

Structure (SMILES): CCOC(=O)c1cc(F)nc(F)c1F [Example 1-117]
- pest or weed control at 10 µg/mL: ≥ 80%

Structure (SMILES): COc1cc(NC(=O)c2cc(F)nc(F)c2F)ccc1C [Example 1-63]
- pest or weed control at 10 µg/mL: ≥ 80%

Structure (SMILES): O=C(Oc1cccc(F)c1)c1cc(F)nc(F)c1 [Example 1-207]
- pest or weed control at 10 µg/mL: ≥ 80%

Structure (SMILES): CC(C)(C)Oc1cccc(NC(=O)c2cc(F)nc(F)c2F)c1 [Example 1-50]
- pest or weed control at 10 µg/mL: ≥ 80%

Structure (SMILES): O=C(Oc1ccccc1)c1cc(F)nc(F)c1 [Example 1-218]
- pest or weed control at 10 µg/mL: ≥ 80%

Structure (SMILES): CC(NC(=O)c1cc(F)nc(F)c1)c1ccc(Cl)cc1 (centres unmarked) [Example 1-141]
- pest or weed control at 10 µg/mL: ≥ 80%

Structure (SMILES): O=C(NCc1ccccc1)c1cc(F)nc(F)c1 [Example 1-140]
- pest or weed control at 10 µg/mL: ≥ 80%
